Drawing on ChEMBL document CHEMBL3243976, “Ring D oxygenated Spirolactones. Characterization of human metabolic product of spironolactone” (1977), this text covers Activity and T/C for seven compounds.

Molecules are shown by their SMILES.

What all share (type): functional, Urine
In assay [1] the test system is Rattus norvegicus. The experiment in a line: Antimineralocorticoid activity in po dosed adrenalectomized rat assessed as urinary log (Na X 10)/K administered post deoxycorticosterone acetate treatment relative to spironolactone.
Assay [2] has as its system Rattus norvegicus. In words: Antimineralocorticoid activity in sc dosed adrenalectomized rat assessed as urinary log (Na X 10)/K administered post deoxycorticosterone acetate treatment relative to spironolactone.
For assay [3], the system named is Rattus norvegicus. The experiment in a line: Antimineralocorticoid activity in adrenalectomized rat assessed as urinary log (Na X 10)/K at 2.4 mg, sc administered post deoxycorticosterone acetate treatment relative to control.
Assay [4] relates to Rattus norvegicus. The experiment in a line: Antimineralocorticoid activity in adrenalectomized rat assessed as urinary log (Na X 10)/K at 2.4 mg, sc administered post deoxycorticosterone acetate treatment relative to spironolactone.

As for `C[C@]12CCC(=O)C=C1C=C[C@@H]1[C@@H]2CC[C@@]2(C)[C@H]1CC[C@@]21CCC(=O)O1` [CANRENONE], the results for the Activity in the assay with Rattus norvegicus [1] and in the assay with Rattus norvegicus [2] were 35% and 38%, respectively. With `C[C@]12CCC(=O)C=C1C=C[C@H]1[C@@H]3[C@@H](O)C[C@@]4(CCC(=O)O4)[C@@]3(C)CC[C@@H]12`, the T/C with Rattus norvegicus [3] is recorded as 0.62. For `C[C@]12CCC(=O)C=C1C=C[C@@H]1[C@@H]2CC[C@@]2(C)[C@H]1C(=O)C[C@@]21CCC(=O)O1`, the T/C in the assay with Rattus norvegicus [3] worked out at 1.01. The Activity with Rattus norvegicus [4] is 15%. Consider `C[C@]12CCC(=O)C=C1C=C[C@@H]1[C@@H]2CC[C@@]2(C)[C@H]1C[C@H](O)[C@@]21CCC(=O)O1`, for which, in the assay with Rattus norvegicus [3], the T/C amounted to 0.84.

`C[C@]12CCC(=O)C=C1C=C[C@H]1C3=CC[C@@]4(CCC(=O)O4)[C@@]3(C)CC[C@@H]12`: in the assay on Rattus norvegicus [3], the T/C was found to be 0.67. Same read-out and setting: the same measure for `CC(=O)O[C@H]1C[C@@]2(CCC(=O)O2)[C@@]2(C)CC[C@H]3[C@@H](C=CC4=CC(=O)CC[C@@]43C)[C@H]12`: 0.77; for `C[C@]12CCC(=O)C=C1C=CC1=C3CC[C@@]4(CCC(=O)O4)[C@@]3(C)CC[C@@H]12`: 0.82.
